The source of these data is US10295528B2, “Method of screening ATP11C or CDC50A inhibitor” (KYOTO UNIVERSITY, priority 2014, dated 2019).

One assay has as its system ATP11C. The experiment in a line: FasL-induced ATP11C cleavage in W3 cells, Western blotting with anti-mATP11C. The format is cell-based, mouse. The settings on record: 1 h FasL, 20 μM QVD-Oph, membrane fractions. As for the experimental part: FIG. 3D Cleavage of ATP11C by caspase (D). W3 and ATP11C^ED22 were incubated for 1 h with FasL in the presence or absence of 20 μM QVD-Oph. Membrane fractions were analyzed by Western blotting with anti-mATP11C or anti-mFas. Upper and middle panels: the blot with anti-mATP11C, where exposure time is longer in the middle panel.
Cells or membrane fractions were lysed in RIPA buffer ([…] (pH 8.0) containing 1% MP-40, 0.1% SDS, 0.5% sodium deoxycholate, 150 mM NaCl, and a cocktail of protease inhibitors (cOmplete, Mini, EDTA-free, Roche Diagnostics)). After removing insoluble materials by centrifugation, the lysates were mixed […] with 3×SDS sample buffer (200 mM Tris-HCl [pH 6.8], 10% SDS, 25% glycerol, 15% β-mercaptoethanol, and 0.05% bromophenol blue), and incubated at room temperature for 20 min. Proteins cere separated by SDS-PAGE using a 7.5% or 10-20% gradient gel (Bio Graft), and transferred to a PVDF membrane (Millipore). The membranes were probed with mouse anti-GFP mAb, rabbit anti-active caspase-3 mAb, rabbit anti-hATP11C Ab, rabbit anti-α-tubulin mAb, or rat anti-mFas mAb, followed by incubation with HRP-conjugated goat anti-mouse Igs, goat anti-rabbit Igs or rabbit anti-rat Igs (Dako). The peroxidase activity was detected by the Western Lightning-ECL system (PerkinElmer).

A further assay concerns ATP11C^GT. The experiment in a line: Internalization of NBD lipids (flippase activity), flow cytometry. The following applies: KBM7-derived ATP11C^GT cells, 20 min with NBD-PS with or without vanadate, MFI. Type of assay: cell-based, human. As for the experimental part:
FIG. 2D Requirement of ATP11C and CDC50A for flippase activity (D), KBM7, ATP11C^GT, and CDC50A^GT were incubated for 20 min with NBD-PS with or without an ATPase inhibitor vanadate, and analyzed by flow cytometry. MFI was plotted (n=3).
Cells (2×10^6) were incubated with 1.5 μM NBD-PS, NBD-PE, or NBD-PC at 25° C. for 15-20 min in 600 μl of HBSS containing 1 mM MgCl2 and 2.5 mM CaCl2. After incubation, the cells were collected by centrifugation, resuspended in HBSS containing 5 mg/ml fatty-acid-free BSA, and analyzed by a FACSAria II. To determine the scramblase activity, 1.5×10^6 cells were incubated at 25° C. for 4 min with 0.5 μM NBD-PC.
A general note: A flow cytometer gives signals particle by particle.

In another assay the test system is CDC50A^ED29. The assay is described as follows: In vitro phagocytosis assay: thio-pMac engulfment of pHrodo-labeled cells. The settings on record: 2 h incubation, 4 μg/ml MFG-E8 D89E. Type of assay: cell-based, mouse. As for the experimental part:
FIG. 6A Engulfment of PtdSer-exposing viable cells (A). Thio-pMacs were incubated for 2 h with pHrodo-labeled W3-Ildm, CDC50A^ED29, its hCDC50A transformant (CDC50A^ED29-hCDC50A), or W3-D430G-L in the presence or absence of 4 μg/ml of MFG-E8 D89E, and analyzed by FACS.
To prepare thioglycollate-elicited peritoneal macrophages (thio-pMacs), female C57BL/6J mice at 7-12 weeks of age were injected intraperitonealiy with 60 mg of thioglycollate (Sigma-Aldrich), and peritoneal macrophages were collected 4 days later. Phagocytosis was assayed by following the transport of pHrodo-stained prey into macrophage lysosomes (50, 51). In brief, 5×10^5 thio-pMacs were grown overnight in 12-well plates (Corning). Growing or apoptotic cells (2.0×10^7) were washed with PBS and incubated with 40 ng/ml pHrodo for 10 min at room temperature. After stopping the reaction with 2 ml FCS, the cells were washed with IMDM containing 10% FCS, added to the macrophages in the medium containing 1% methyl cellulose (Sigma-Aldrich), spun at 500×g for 4 min at room temperature using a swinging rotor, and incubated at 37° C. The macrophages were detached from the plate by treatment with 0.25% trypsin, stained with APC-conjugated rat anti-mouse Mac1, suspended in 20 mM CHES-NaOH buffer (pH 9.0) containing 150 mM NaCl, 2% PCS, and 200 nM Sytox blue, and analyzed by flow cytometry using the FACSCanto II. […]

Consider `CC(C)[C@H](NC(=O)c1ccc2ccccc2n1)C(=O)N[C@@H](CC(=O)O)C(=O)COc1c(F)cccc1F` [Q-VD-OPh], for which the “FasL-caused shift in ATP11C's mobility (from 120 to 50 kDa)” value in the assay on ATP11C was “prevented”. Take `[O]=[V]([O-])([O-])[O-]` [orthovanadate]: the “incorporation of phospholipids in ATP11C^GT” value in the assay on ATP11C^GT is listed as “inhibited”.

B1: D89E mutant of MFG-E8: D89E mutant of MFG-E8, which masks PtdSer; produced in HEK293T cells (protein, UniProt P21956 23-463, looked up, variant D89E)
Lactadherin: ASGDFCDSSLCLNGGTCLTGQDNDIYCLCPEGFTGLVCNETERGPCSPNPCYNDAKCLVTLDTQRGEIFTEYICQCPVGYSGIHCETETNYYNLDGEYMFTTAVPNTAVPTPAPTPDLSNNLASRCSTQLGMEGGAIADSQISASSVYMGFMGLQRWGPELARLYRTGIVNAWTASNYDSKPWIQVNLLRKMRVSGVMTQGASRAGRAEYLKTFKVAYSLDGRKFEFIQDESGGDKEFLGNLDNNSLKVNMFNPTLEAQYIKLYPVSCHRGCTLRFELLGCELHGCSEPLGLKNNTIPDSQMSASSSYKTWNLRAFGWYPHLGRLDNQGKINAWTAQSNSAKEWLQVDLGTQRQVTGIITQGARDFGHIQYVASYKVAHSDDGVQWTVYEEQGSSKVFQGNLDNNSHKKNIFEKPFMARYVRVLPVSWHNRITLRLELLGC
In the case of B1, the “engulfment of CDC50A^ED29 by thio-pMacs” value in the assay on CDC50A^ED29 is given as “inhibited”.
